Measurements from patent US20250213463A1, “TOPICAL COMPOSITION AND USES THEREOF” (COTY INC., priority 2021, published 2025).

Tested on: Normal human primary fibroblasts
Experiment: Fibronectin release by UV-irradiated normal human primary fibroblasts (Human Magnetic Luminex Assay)
Assay type: cell-based
Method: Normal human primary fibroblasts were seeded in culture well plates at 200,000 cells/cm^2 with DMEM (Dulbecco's Modified Eagle Medium) culture medium. 24 hours later, culture medium was removed, cells were rinsed with PBS (Phosphate Buffered Saline), and fresh PBS was applied to the cells. Cells were then exposed to UV irradiation (from 300 to 400 nm) for a time to cause physical and/or chemical UV-induced change, without exposure to active ingredients. Immediately after irradiation, PBS was removed and the active ingredients creatine, palmitoylTripeptide-5 (Lys-Val-Lys) and bifida ferment lysate diluted in culture medium were applied for 72 hours. Cells were incubated at +37° C. with 5% CO2.
Quantification of fibronectin release was performed by using Human Magnetic Luminex Assays (ref: LXSAHM-03) according to the protocol described by the supplier. Results were expressed in pg/ml.

Row | Compound | effect on fibronectin production/levels (in words) (UV-irradiated fibroblasts, 72 hours treatment, FIG. 1) | increase in fibronectin production over either no treatment or creatine treatment alone (UV-irradiated fibroblasts, 72 hours treatment) | fibronectin production in irradiated cells (fibroblasts exposed to UV (300 to 400 nm), then actives in culture medium for 72 hours)
1 | CN(CC(=O)O)C(=N)N [Creatine] | does not appear to exert a positive impact |  | 
2 | palmitoylTripeptide-5 (Lys-Val-Lys) |  | 36.9% | 550K
